Experimental data published in PubChem BioAssay AID330 (DTP/NCI, 2004).
Several values for one entry are separate records, joined by “and”; a condition that tells them apart may be missing. Equal entries are not always repeated. Inconclusive results and toxic doses are left out. Rule for the calls: active = survival T/C of 150% or more; inactive = T/C below 125% in these data.

System: P388 leukemia ip, CD2F1 mice, survival T/C
Assay: NCI In Vivo Anticancer Drug Screen. Data for tumor model P388 Leukemia (intraperitoneal) in CD2F1 (CDF1) mice
Conditions: endpoint: median survival time, higher = longer survival
Outline: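 Mice carrying the transplanted tumor received test compound or vehicle. Survival was recorded in each group, and the value is the treated-group measurement divided by that of the vehicle-treated control group.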

[1] = dose: 50.0 mg/kg/injection, schedule: Q01DX005 (ip), vehicle: saline with Tween-80
[2] = dose: 100.0 mg/kg/injection, schedule: Q01DX005 (ip), vehicle: saline with Tween-80
[3] = dose: 200.0 mg/kg/injection, schedule: Q01DX005 (ip), vehicle: saline with Tween-80
[4] = dose: 50.0 mg/kg/injection, schedule: Q01DX005 (ip), vehicle: Klucel (hydroxypropylcellulose) (HPC)
[5] = dose: 100.0 mg/kg/injection, schedule: Q01DX005 (ip), vehicle: Klucel (hydroxypropylcellulose) (HPC)
[6] = dose: 200.0 mg/kg/injection, schedule: Q01DX005 (ip), vehicle: Klucel (hydroxypropylcellulose) (HPC)
[7] = dose: 50.0 mg/kg/injection, schedule: Q01DX009 (ip), vehicle: saline with Tween-80
[8] = dose: 100.0 mg/kg/injection, schedule: Q01DX009 (ip), vehicle: saline with Tween-80
[9] = dose: 200.0 mg/kg/injection, schedule: Q01DX009 (ip), vehicle: saline with Tween-80
[10] = dose: 25.0 mg/kg/injection, schedule: Q01DX005 (ip), vehicle: Klucel (hydroxypropylcellulose) (HPC)
[11] = dose: 25.0 mg/kg/injection, schedule: Q01DX005 (ip), vehicle: saline with Tween-80

Measured: T/C

CCOC(=O)C1=C(O)c2ccccc2S(=O)(=O)N1C (tested in a mixture with another compound)
inactive: dose: 60.0 mg/kg/injection, schedule: Q01DX005 (ip), vehicle: saline with Tween-80 98 % of control | dose: 120.0 mg/kg/injection, schedule: Q01DX005 (ip), vehicle: saline with Tween-80 107 % of control | dose: 240.0 mg/kg/injection, schedule: Q01DX005 (ip), vehicle: saline with Tween-80 97 % of control

O=C(CCCCCCCC(=O)Nc1ccc2c(=O)c3ccccc3[nH]c2c1)Nc1ccc2c(=O)c3ccccc3[nH]c2c1
inactive: [1] 103 % of control | [2] 110 % of control | [3] 92 % of control

NC(CCC(=O)NCCCC(=O)O)C(=O)O (configuration not stated)
inactive: dose: 100.0 mg/kg/injection, schedule: Q04DX002 (ip), vehicle: saline 105 % of control | dose: 200.0 mg/kg/injection, schedule: Q04DX002 (ip), vehicle: saline 113 % of control | dose: 400.0 mg/kg/injection, schedule: Q04DX002 (ip), vehicle: saline 108 % of control

COC(=O)C1C2c3ccccc3C(c3ccccc32)C1(C)C(=O)OC (configuration not stated)
inactive: [4] 96 % of control | [5] 102 % of control | [6] 102 % of control

COc1ccc(C2C(C#N)=C(c3ccccc3)OC(OC)(OC)C2(OC)OC)cc1 (configuration not stated)
inactive: dose: 60.0 mg/kg/injection, schedule: Q01DX005 (ip), vehicle: Klucel (hydroxypropylcellulose) (HPC) 102 % of control | dose: 120.0 mg/kg/injection, schedule: Q01DX005 (ip), vehicle: Klucel (hydroxypropylcellulose) (HPC) 102 % of control | dose: 240.0 mg/kg/injection, schedule: Q01DX005 (ip), vehicle: Klucel (hydroxypropylcellulose) (HPC) 99 % of control

FC(F)(F)c1cccc(CSCc2c(CSCc3cccc(C(F)(F)F)c3)c(CSCc3cccc(C(F)(F)F)c3)c(CSCc3cccc(C(F)(F)F)c3)c(CSCc3cccc(C(F)(F)F)c3)c2CSCc2cccc(C(F)(F)F)c2)c1
inactive: [7] 104 % of control | [8] 98 % of control | [9] 97 % of control

O=C1c2ccccc2C(=O)N1/N=N/N1C(=O)c2ccccc2C1=O
inactive: [10] 99 % of control | [4] 102 % of control | [5] 110 % of control | [6] 106 % of control

N#C/C(=C/c1ccccc1)c1ccccc1
inactive: [7] 87 % of control | [8] 88 % of control | [9] 88 % of control | dose: 400.0 mg/kg/injection, schedule: Q01DX009 (ip), vehicle: saline with Tween-80 102 % of control

CCOC(=O)/C=C1\COc2nc(N)[nH]c(=O)c2N1
inactive: dose: 12.5 mg/kg/injection, schedule: Q01DX005 (ip), vehicle: Klucel (hydroxypropylcellulose) (HPC) 93 % of control | [10] 91 % of control | [4] 89 % of control | [5] 94 % of control | [6] 91 % of control

CCOC(=O)CCC1CCCC(CCC(=O)OCC)C1=O (configuration not stated)
inactive: dose: 50.0 mg/kg/injection, schedule: Q01DX009 (ip), vehicle: other 105 % of control | dose: 100.0 mg/kg/injection, schedule: Q01DX009 (ip), vehicle: other 101 % of control | dose: 200.0 mg/kg/injection, schedule: Q01DX009 (ip), vehicle: other 106 % of control

CCN(CC)CC(=O)Nc1ccc2c(c1)C(=O)c1ccc(NC(=O)CN(CC)CC)cc1C2=O
inactive: [4] 90 % of control | dose: 50.0 mg/kg/injection, schedule: Q01DX005 (ip), vehicle: acid diluted with saline 100 % of control | [5] 93 % of control | dose: 100.0 mg/kg/injection, schedule: Q01DX005 (ip), vehicle: acid diluted with saline 103 % of control | [6] 90 % of control | dose: 200.0 mg/kg/injection, schedule: Q01DX005 (ip), vehicle: acid diluted with saline 106 % of control

COc1ccc(N2CC[N+](c3ccc(N(C)C)cc3)=C2C2=[N+](c3ccc(N(C)C)cc3)CCN2c2ccc(OC)cc2)cc1
inactive: dose: 12.5 mg/kg/injection, schedule: Q01DX009 (ip), vehicle: Klucel (hydroxypropylcellulose) (HPC) 91 % of control | dose: 25.0 mg/kg/injection, schedule: Q01DX009 (ip), vehicle: Klucel (hydroxypropylcellulose) (HPC) 91 % of control | dose: 50.0 mg/kg/injection, schedule: Q01DX009 (ip), vehicle: Klucel (hydroxypropylcellulose) (HPC) 91 % of control

Cc1nn(C(=O)c2cccnc2)c(-c2ccccc2)c1N=Nc1ccc(S(=O)(=O)Nc2ncccn2)cc1
inactive: [1] 89 % of control | [2] 88 % of control

Nc1nc[nH]c(=O)c1NC(=O)c1cccc([N+](=O)[O-])c1
inactive: dose: 12.5 mg/kg/injection, schedule: Q01DX009 (ip), vehicle: saline with Tween-80 101 % of control | dose: 25.0 mg/kg/injection, schedule: Q01DX009 (ip), vehicle: saline with Tween-80 100 % of control | [7] 96 % of control | [8] 99 % of control

COc1cccc(C(=O)CCN(C)C(=O)OCc2ccccc2)c1OCc1ccccc1
inactive: [11] 94 % of control | [1] 103 % of control | [2] 103 % of control

C#CC(OS(=O)(=O)C(F)(F)F)=C1C2CC3CC(C2)CC1C3
inactive: [1] 100 % of control | [2] 98 % of control | [3] 100 % of control

CCOC(=O)c1c(-c2ccccc2)nn2c1COC(=O)C2
inactive: [1] 103 % of control | [2] 99 % of control | [3] 98 % of control

O=c1oc(-c2ccc(Cl)cc2[N+](=O)[O-])nc2ccccc12
inactive: dose: 50.0 mg/kg/injection, schedule: Q01DX009 (ip), vehicle: saline 108 % of control | dose: 100.0 mg/kg/injection, schedule: Q01DX009 (ip), vehicle: saline 104 % of control | dose: 200.0 mg/kg/injection, schedule: Q01DX009 (ip), vehicle: saline 100 % of control

CC(=O)O[C@]12C=C[C@H](O1)[C@@H]1C(=O)NC(=O)[C@@H]12
inactive: dose: 6.25 mg/kg/injection, schedule: Q04DX002 (ip), vehicle: saline 98 % of control | dose: 12.5 mg/kg/injection, schedule: Q04DX002 (ip), vehicle: saline 106 % of control | dose: 25.0 mg/kg/injection, schedule: Q04DX002 (ip), vehicle: saline 88 % of control

COc1cc(C2(C3C(CO)OC(=O)C3Cc3ccc4c(c3)OCO4)SCCCS2)cc(OC)c1OC (configuration not stated)
inactive: dose: 25.0 mg/kg/injection, schedule: Q04DX002 (ip), vehicle: saline with Tween-80 100 % of control | dose: 50.0 mg/kg/injection, schedule: Q04DX002 (ip), vehicle: saline with Tween-80 87 % of control

O=[N+]([O-])c1ccc(/C=C/Sc2ccccc2)o1
inactive: dose: 50.0 mg/kg/injection, schedule: Q01DX009 (ip), vehicle: suspension in saline 99 % of control | dose: 100.0 mg/kg/injection, schedule: Q01DX009 (ip), vehicle: suspension in saline 98 % of control

CC(C)(OC(=O)NC(CC(N)=O)C(=O)O)c1ccc(N=Nc2ccccc2)cc1 (configuration not stated)
inactive: [7] 97 % of control | [8] 92 % of control | [9] 92 % of control

COC(=O)[C@H]1[C@H]2C[C@@H]3c4[nH]c5ccccc5c4CCN3C[C@H]2C[C@@H](OC(=O)c2cc(OC)c(OC)c(OC)c2)[C@@H]1OC
inactive: dose: 3.13 mg/kg/injection, schedule: Q01DX005 (ip), vehicle: saline with Tween-80 105 % of control and 123 % of control | dose: 6.25 mg/kg/injection, schedule: Q01DX005 (ip), vehicle: saline with Tween-80 118 % of control (2×) and 124 % of control | dose: 12.5 mg/kg/injection, schedule: Q01DX005 (ip), vehicle: saline with Tween-80 114 % of control and 118 % of control and 124 % of control | [11] 111 % of control and 94 % of control and 97 % of control

C(/Oc1ccc(-c2ccccc2)cc1)=C(/c1ccccc1)c1ccccc1-c1ccccc1
inactive: [4] 101 % of control | [5] 99 % of control | [6] 92 % of control

Cc1c(N=Nc2c(S(=O)(=O)O)cc3cc(S(=O)(=O)O)c(N=Nc4c(C)n(C)n(-c5ccccc5)c4=O)c(O)c3c2O)c(=O)n(-c2ccccc2)n1C
inactive: dose: 60.0 mg/kg/injection, schedule: Q01DX005 (ip), vehicle: suspension in saline 101 % of control | dose: 120.0 mg/kg/injection, schedule: Q01DX005 (ip), vehicle: suspension in saline 96 % of control | dose: 240.0 mg/kg/injection, schedule: Q01DX005 (ip), vehicle: suspension in saline 110 % of control

CCOC(=O)c1cc(OC(C)=O)c2c(ccc3ccccc32)c1C
inactive: dose: 100.0 mg/kg/injection, schedule: Q01DX009 (ip), vehicle: Klucel (hydroxypropylcellulose) (HPC) 95 % of control | dose: 200.0 mg/kg/injection, schedule: Q01DX009 (ip), vehicle: Klucel (hydroxypropylcellulose) (HPC) 90 % of control | dose: 400.0 mg/kg/injection, schedule: Q01DX009 (ip), vehicle: Klucel (hydroxypropylcellulose) (HPC) 95 % of control

N#Cc1[nH]nc2[nH]c(=S)[nH]c(=S)c12
inactive: dose: 100.0 mg/kg/injection, schedule: Q04DX002 (ip), vehicle: water 113 % of control | dose: 200.0 mg/kg/injection, schedule: Q04DX002 (ip), vehicle: water 110 % of control | dose: 400.0 mg/kg/injection, schedule: Q04DX002 (ip), vehicle: water 102 % of control
